# According to patent US20150335610A1, “PDK4 INHIBITOR AND USE THEREOF” (priority 2012, published 2015):
# How the values were obtained:
# [1] = biological target: PDK4 (Homo sapiens, UniProt Q16654); test: PDK4-inhibitory activity by off-chip mobility shift assay (phosphorylation of PDH E1 subunit); assay type: biochemical; details: for IC50: phosphorylation of E1 subunit of PDH, 100 μM ATP, human recombinant PDK
# Method: The PDK2 and PDK4-inhibitory activities were determined by measuring the phosphorylation of the E1 subunit of PDH in the presence of 100 μM ATP.
# 1) 5 μL of 4-fold concentrated solutions of test substances, 5 μL of 4-fold concentrated solutions of substrates (recombinant human PDH)/ATP/metal, and 10 μL of 2-fold concentrated solutions of human recombinant PDK were prepared with an assay buffer (20 mM HEPES, 0.01% Triton X-100, 2 mM DTT, pH 7.5) and then were mixed in the wells of a polypropylene 384-well plate, followed by reactions for five hours at room temperature.
# 2) Reactions were terminated by adding 60 μL of Termination Buffer (QuickScout Screening Assist MSA; Carna Biosciences, Inc.).
# 3) Peptide substrates and phosphorylated peptides in the reaction solutions were separated by LabChip3000 system (Caliper Life Science) and quantified (gel shift assay). The phosphorylation activity was assessed by product ratios (P/(P+S)) calculated from the peptide substrate peak height (S) and the phosphorylated peptide peak height (P).
# 4) The inhibitory percentage was calculated as follows.
# [2] = system: HeLaS3 cells; test: Soft agar colony formation assay of cancer cells HeLaS3; assay type: cell-based; details: at 3 μM; eight days of culture; FIG. 14
# Method: A conventional method was employed for a soft agar colony formation assay of cancer cells HeLaS3 (C. Oneyama et. al. Genes to Cells 2008; 13: 1 to 129). The HeLaS3 cells (4×10^4) were mixed with 3 ml of soft agar medium (Dulbecco modified Eagle's medium, 10% calf serum, 0.36% agar) and poured into a well of 6 cm-cell culture plate, which was added 5 ml of the base agar medium (Dulbecco modified Eagle's medium, 10% calf serum, 0.7% agar) in advance. After eight days of culture in a carbon dioxide gas incubator at 37° C., colonies were stained with MTT (3-(4,5-dimethylthiazol-2-yl)-2,5-diphenyltetrazolium bromide).
# [3] = system: cells cancerated by Ras; test: Anchorage-independent sphere growth of cells cancerated by Ras; assay type: cell-based; details: at μM to 10 μM order
# [4] = system: normal cells; test: Anchorage-independent growth of normal cells; assay type: cell-based; details: even at the order of several tens of μM
# [5] = system: pyruvate dehydrogenase (PDH); assay type: in vivo, mouse; details: KIS7 2.8 mg/kg/day, DCA 56 mg/kg/day i.p., FIG. 10
# [6] = background art, Non-Patent Literature 4; cited from earlier work
# Chain of PDK4 (Q16654 whole entry): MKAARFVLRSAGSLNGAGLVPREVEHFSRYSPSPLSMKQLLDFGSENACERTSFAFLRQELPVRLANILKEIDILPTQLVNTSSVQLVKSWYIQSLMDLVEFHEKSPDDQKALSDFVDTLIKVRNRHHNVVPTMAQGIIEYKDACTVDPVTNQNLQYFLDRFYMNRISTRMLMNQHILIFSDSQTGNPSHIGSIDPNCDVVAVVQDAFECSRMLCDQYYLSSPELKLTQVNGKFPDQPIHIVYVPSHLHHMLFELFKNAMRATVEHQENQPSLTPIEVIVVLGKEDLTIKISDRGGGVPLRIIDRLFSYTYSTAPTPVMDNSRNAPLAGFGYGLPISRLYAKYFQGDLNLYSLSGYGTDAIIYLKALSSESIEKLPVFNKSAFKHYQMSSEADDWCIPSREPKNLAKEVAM
SMILES,IC50 [1],colony formation of HeLaS3 in soft agar [2],anchorage-independent sphere growth of cells cancerated by Ras [3],anchorage-independent growth of normal cells [4],dose inhibiting PDK4 compared with DCA and Radicicol ([1]; FIG. 4),"effect on PDK4 activity (activation or inhibition) ([1]; comparison with known PDK inhibitory substances, FIG. 4)",PDH enzyme activity in liver tissue [5],side effects [6]
"C[C@H]1COC2=C1C(=O)C(=O)c1c2ccc2c1CCCC2(C)C [KIS37, cryptotanshinone]",11 µM,inhibited the colony formation,suppressed the anchorage-independent sphere growth,did not inhibit,,,,
"Cc1cccc2c3c(ccc12)C1=C(C(=O)C3=O)[C@@H](C)CO1 [KIS116, dihydrotanshinone I]",< 4 µM,,suppressed the anchorage-independent sphere growth,did not inhibit,,,,
Cc1cc2c(C(C)C)c(O)c(O)c(/C=N/c3ccccc3C(=O)O)c2c(O)c1-c1c(C)cc2c(C(C)C)c(O)c(O)c(/C=N/c3ccccc3C(=O)O)c2c1O [KIS28],13.2 µM,,,,,,,
"Cc1cc2c(C(C)C)c(O)c(O)c(C=O)c2c(O)c1-c1c(C)cc2c(C(C)C)c(O)c(O)c(C=O)c2c1O [KIS7, gossypol]",4 µM,inhibited the colony formation,suppressed the anchorage-independent sphere growth,did not inhibit,far lower dose as compared with DCA and Radicicol,inhibited PDK4,equivalent PDH activities to non-infected mice,
"O=C(O)C(Cl)Cl [DCA, dichloroacetic acid, reference compound]",,,,,,,equivalent PDH activities to non-infected mice,severe side effects such as neurotoxicity
"CC1(C)CCC2=C(O1)c1ccccc1C(=O)C2=O [KIS24, β-lapachone]",3 µM,inhibited the colony formation,suppressed the anchorage-independent sphere growth,,,,,
